Results on six molecules are retold here after patent US20240099298A1, “BIOINSECTICIDAL COMPOSITIONS CONTAINING MONOTERPENES AND METHODS OF USE THEREOF” (priority 2017, published 2024).

Series [1] deals with adult T. palmi. The note with it: cited from earlier work.
For series [2] the following is noted: T 25 °C; cited from earlier work.
Series [3] addresses T1, recombinant gamma-aminobutyric acid receptor-associated protein (rGABARAP) (Frankliniella occidentalis, UniProt A0A6J1T1Q2). Description: Isothermal titration calorimetry (ITC) binding to rGABARAP. The note with it: 25° C., pH 7.4. The protocol:
(§1) Preparation of recombinant GABARAP (rGABARAP) protein. RNA was extracted from F. occidentalis and cDNA was then synthesized. GABARAP (GenBank accession No. LOC113211372) was obtained after PCR amplification (Stafford-Banks, et al. (2014) Plos One 9:e94447).
(§2) The isothermal titration thermal binding measurements were performed with an ITC-200 calorimeter (GE Healthcare, Boston, MA) at 25° C. in a buffer containing 50 mM Tris-HCl and 100 mM NaCl (pH 7.4). […] The MicroCal Origin 7.0 software system was used for data processing. The first run was a pre-run and was excluded from the final data. The amount of protein in the sample pool was constant. […] The experimental bimolecular interaction data from the 18 drops were used to calculate the dissociation constant. The dissociation constant […] was calculated as 1/K (Li, et al. (2018) RSC Advances 8:18952-18958).

Series [4] concerns the target T2, rGABARAP^Y174A (Frankliniella occidentalis, UniProt A0A6J1T1Q2). Kind of series: ITC binding to rGABARAP mutant. On the procedure:
as §2
(§3) Preparation of rGABARAP Mutant and Interaction Between ME and rGABARAP Mutant. […] DNAman was used to convert the nucleic acid sequence into an amino acid sequence and find the Y174 site. Y174 was mutated to A174. The rGABARAP mutant gene loaded into the pMCSG19 vector and the His tags at both ends of the sequence were retained to construct a prokaryotic expression plasmid. The carrier contained a maltose binding protein (MBP) tag that was not cut for verification. However, MBP and ME were used as treatment controls. The mutant plasmid was constructed in Sangon Biotech (Shanghai, China). The protein expression, purification, and desalting procedures of rGABARAP^Y174A mutant and rGABARAP were the same. Subsequently, the binding kinetics of ME and rGABARAP^Y174A were tested by MST and ITC.

Series [5] concerns the target T2, rGABARAP^Y174A. Kind of series: MST binding to rGABARAP mutant. The protocol:
(§4) Interaction between ME and rGABARAP. A Nano Temper Monolith NT.115 MST system (Nano Temper, Munich, Germany) was used to assess the binding affinities between the target compounds and rGABARAP according to the published procedures (Zan, et al. (2020) Journal of Agricultural and Food Chemistry 68:6280-6285). Spinosyn A was used as a chemical positive control. Spinosyn A (≥1 nM) can trigger a change of the Cl^− current of insect neuron GABAAR, which is considered to be an insecticidal action mechanism of spinosyn A (Watson (2001) Pesticide Biochemistry and Physiology 71:20-28). Ovalbumin (OVA) (Sangon Biotech, Shanghai, China) is a control protein consisting of 385 amino acid residues. The interaction between OVA and ME was used as a protein control experiment (Huntington, et al. (1995) Protein Science 4:613-621).
as §3

Series [6] addresses T1, recombinant gamma-aminobutyric acid receptor-associated protein (rGABARAP). Kind of series: Microscale thermophoresis (MST) binding to rGABARAP. The note with it: rGABARAP; read-out: Kd value, MST.
Excerpt: as §1, §4

Series [7] deals with Blatta lateralis (Walker) (cockroach). To be noted: cockroach second instar nymphs, exposed one hour. From the text: (§5) Median Lethal Concentration Tests. […] The species tested included Thrips (M. usitatus), spider mite (T. cinnabarinus), melon fly (B. cucuribitae), cockroach (B. lateralis), housefly (M. domestica), mosquito (A. aegypti), parasitic wasp (T. chilonis) and fruit fly (Drosophila melanogaster). After being exposed to the test chemicals for one hour, adult Thrips, spider mites, and roaches were transferred to another flask. In addition to fresh water, adult Thrips, spider mites, and roaches were then respectively fed with cowpea, fresh blade of eggplant, and peanut oil via filter. […] Mortality of melon fly was observed after three hours of exposure.

For series [8], the system named is Musca domestica (Linnaeus) (housefly). The note with it: adult housefly, exposed one hour, mortality in 24 hours.
Excerpt: as §5

Series [9] concerns Tetranychus cinnabarinus (Boisduval) (spider mites). To be noted: spider mites, exposed one hour.
Excerpt: as §5

Series [10] concerns Aedes aegypti (Linnaeus) (mosquito). The note with it: adult mosquito, exposed 30 minutes, mortality in 24 hours.
Excerpt: as §5

Series [11] deals with Bactrocera cucuribitae (Coquillett) (melon fly). To be noted: melon fly.
Excerpt: as §5

Series [12] deals with B. cucuribitae (melon fly). Kind of series: Median lethal time (LT50) test, melon fly. Type of series: in vivo, Bactrocera cucuribitae. From the text: (§6) All treatments and controls were in triplicate.
(§7) Toxicity of Monoterpenes as Fumigants. […] Therefore, to determine how fast the monoterpenes act as fumigants, it was necessary to determine their LT50 values for the target organisms.

Series [13] concerns Aedes aegypti (mosquito). Kind of series: Median knockdown concentration (KC50) test, mosquito. Type of series: in vivo. To be noted: 30 Minutes.
Excerpt: as §6
(§8) Knockdown Activity of Monoterpenes.

Series [14] deals with T. castaneum (red flour beetle). Description: Median lethal time (LT50) test, red flour beetle. It counts as in vivo, Tribolium castaneum.
Excerpt: as §6, §7

Series [15] deals with Megalurothrips usitatus (Bagrall) (thrips). Description: Median lethal concentration fumigation test, thrips. The note with it: adult thrips, exposed one hour, mortality observed in 24 hours.
Excerpt: as §5

Series [16] concerns T. chilonis (parasitic wasp). To be noted: non-target parasitic wasp, mortality after 15 minutes of exposure.
Excerpt: (§9) Insect Egg Parasitic Wasp (Natural Enemy). […] Both species were purchased from a commercial source. One- to two-day-old adults (after eclosion) were used for fumigation tests.
as §5

Series [17] has as its system Musca domestica (housefly). Description: Median knockdown concentration (KC50) test, housefly. To be noted: Musca domestica. Type of series: in vivo.
Excerpt: as §6, §8

In series [18] the test system is Drosophila melanogaster (fruit fly). Description: Median lethal concentration fumigation test, fruit fly. To be noted: mortality after 280 minutes. It counts as in vivo.
The test system of series [19] is A. japonicus (parasitic wasp). Kind of series: Median lethal time (LT50) test, parasitic wasp (natural enemy). To be noted: non-target parasitic wasp. On the procedure:
as §9
Median Lethal Time (LT50) and Median Knockdown Concentration (KC50) Tests. Five species of adult insects or natural enemies were tested for LT50 values including melon fly (B. cucuribitae), red flour beetle (T. castaneum), Nitidulidae beetle (H. picinus), parasitic wasp (A. japonicus) and housefly (M. domestica). For each treatment and control, 20 insects at the developmental stages described above were placed individually without food in a 1-L wide-mouth glass bottle (height 19.5 cm, bottom diameter 10.5 cm, mouth i.d. 5.5 cm) containing pieces of tissue paper. […] Five different concentrations of the test chemicals were placed on pieces of cellulose-based qualitative filter paper. Each of the filter papers was placed in a bottle to have 5 appropriate concentrations in serial dilutions. DDVP was the positive control, and no chemical treatments were the negative control. All treatments and controls were in triplicate. Mortality was observed periodically in a 10-30 minute interval for 2 days or until all insects died. The death was defined as no movement when the insects were touched.

Series [20] deals with Megalurothrips usitatus (flower Thrips). The note with it: adult M. usitatus, 24 hours of fumigation in 1-L flasks.
Series [21] deals with housefly adults. To be noted: cited from earlier work.

In brackets after ≈: the same amount, converted by molar mass. A value given as a limit tells only on which side of the number the result lay.

T2 sequence (A0A6J1T1Q2 entry or part of it, stated change not applied): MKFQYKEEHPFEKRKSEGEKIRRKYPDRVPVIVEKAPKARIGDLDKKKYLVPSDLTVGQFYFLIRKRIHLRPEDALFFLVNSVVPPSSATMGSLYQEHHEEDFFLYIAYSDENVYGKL
T1 sequence (A0A6J1T1Q2 1-118): as the sequence (A0A6J1T1Q2 entry or part of it, stated change not applied) above

`CC12CCC(CC1)C(C)(C)O2` [1,8-Cineole]: in [1], the “LC50, fumigation toxicity” value was 16700 ng/mL (≈ 108 µM). For the same molecule, the “Vp (Pa)/T (° C.)” value in series [2] is 253.31/25 Pa.

In the case of `C/C=C/c1ccc(OC)cc1` [Anethole, 1-(4-methoxyphenyl) -1-propen], the Kd in series [3] was found to be 4.49 µM; in [5] (read-out: Kd value, MST), 41 ± 36.4 µM; in series [6], 1.61 µM. Moreover, the “Kd value, ITC” value in series [4] is “No binding”.

On to `COP(=O)(OC)OC=C(Cl)Cl` [DDVP 80%, 2,2-Dichlorovinyl dimethyl phosphate, reference compound], for which the “LC90 (fiducial limits)” value was found to be 9510 ng/mL in series [7]; 530 ng/mL in series [8]; 800 ng/mL in series [9]; 2.8 ng/mL in series [10]; 1.4 ng/mL in [11]; 1850 ng/mL in series [15]. The “LC90 (fiducial limits)” value in series [18] came out at 0.002 ng/mL. Moreover, the “LT50 (fiducial limits)” value in [12] stood at 0.89 h; in [14], 2.70 h. For the same molecule, the figures for the “KC50 (fiducial limits)” value in series [13], in series [17] (20 Minutes) and in series [17] (30 Minutes) were more than 0.081 µg/mL, more than 2.7 µg/mL and more than 2.7 µg/mL, respectively. In addition, the “LC90 (fiducial limits) against T. chilonis” value in series [16] was more than 3750 ng/mL. In series [19], the “LT50 (fiducial limits) against A. japonicus” value is 0.41 (0.07-0.49) hour.

On to `C=CCc1ccc(OC)c(OC)c1` [Eugenol methyl ether, 1-(3,4-dimethoxyphenyl) -2-propene], for which the results for the equilibrium dissociation constant (Kd) in series [3] and in series [6] were 4.22 µM and 1.3 µM, respectively. In series [4], the “Kd value, ITC” value is listed as “neither MBP nor ME interacted”. Further, the “Kd value, MST” value in [5] is “loss of binding”. For the same molecule, the “activity against flower Thrips in preliminary screening” value in [20] is “exhibit insecticidal activity”.

For `CC1CCC(C(C)C)C(O)C1` (stereo not drawn) [menthol], in [21], the repellent activity is reported as 96%.

Take `CC(C)[C@@H]1CC[C@@H](C)CC1=O` [menthone]: the repellent activity in [21] is recorded as 83%.
